From patent US5698529A, “Chemotherapeutic compositions” (Supratek Pharma, Inc., priority 1996, dated 1997)
Values after ≈ are worked out from the molar mass of the structure shown. Read-outs that look alike come from different tables or passages of the source.

Key:
[1] = system: human ovarian cancer cells (CRL157); assay: Cytotoxicity to human ovarian cancer cells (CRL157), Example 3; type: cell-based
Protocol: B. Human ovarian carcinoma cells (CRL157) are precultured in 1% solution of the same block copolymer but without daunorubicin in RPMI 1640 medium supplemented with 10% calf fetal serum. The preparation of part A is added and the mixture is incubated for 60 minutes at 37° C. and the cells then washed three times with RPMI 1640 and cultured in RPMI 1640 supplemented with 10% calf fetal serum for 3 days {Prep. A}. Cytotoxicity is measured, both for this preparation and a parallel preparation of free daunorubicin {Prep. B}, using the method of Alley et al., Cancer Res., 48, 589-601 (1988). The results are as follows:
A. A 1:1.5 mixture of block copolymers of poly(oxyethylene)-poly(oxypropylene) (pluronics P-85 and L-64) having individual ratios (n) of (oxypropylene) to (oxyethylene) blocks of 1.00 and 1.50, respectively, and a combined value (N) of 1.30, is diluted with RPMI 1640 medium to a final concentration of 2.0% at 4° C. The mixture is incubated for 30 minutes at 37° C. and then sterilely filtered through a 0.22 μm filter. An equal volume of a solution of 200 μg daunorubicin in RPMI 1640 medium is added and this mixture is incubated for 30 minutes at 37° C.
B. Cytotoxicity to human ovarian cancer cells (CRL157) is measured, both for this preparation {Prep. A} and a parallel preparation of free daunorubicin {Prep. B} as described in Example 1B.

[2] = system: human T-lymphoma (Jurkat) cells; assay: IC50 at intervals of drug contact, Jurkat cells, Example 5; type: cell-based
Protocol: Measurements are made at the indicated intervals of the drug contact with the cells from 15 minutes to 12 hours.

With `COc1cccc2c1C(=O)c1c(O)c3c(c(O)c1C2=O)C[C@@](O)(C(C)=O)C[C@@H]3O[C@H]1C[C@H](N)[C@H](O)[C@H](C)O1` [Prep. B, daunorubicin] as the compound, how does the inhibition at 0.0032 µg/mL [1] read?
The inhibition at 0.0032 µg/mL was 2%.

And the inhibition at 0.016 µg/mL [1]?
The inhibition at 0.016 µg/mL was 10%.

And the inhibition at 0.08 µg/mL [1]?
Its inhibition at 0.08 µg/mL is 29%.

And the inhibition at 0.4 µg/mL [1]?
Its inhibition at 0.4 µg/mL is 50%.

And the inhibition at 2 µg/mL [1]?
The inhibition at 2 µg/mL was 81%.

And the inhibition at 10 µg/mL [1]?
Its inhibition at 10 µg/mL is 100%.

And the inhibition at 50 µg/mL [1]?
Its inhibition at 50 µg/mL is 100%.

What about the IC50 ([2]; 0.25 h) of the same compound?
Its IC50 is 0.12 µg/mL (≈ 0.227 µM).

What about the IC50 ([2]; 0.5 h, drug contact 0.50 hours, read-out: IC50) of the same compound?
The IC50 was 0.068 µg/mL (≈ 0.129 µM).

And the IC50 ([2]; 0.75 h)?
The IC50 was 0.035 µg/mL (≈ 0.0663 µM).

What about the IC50 ([2]; 1 h) of the same compound?
The IC50 was 0.025 µg/mL (≈ 0.0474 µM).

And the IC50 ([2]; 2 h)?
The IC50 was 0.019 µg/mL (≈ 0.036 µM).

And the IC50 ([2]; 4 h)?
Its IC50 is 0.016 µg/mL (≈ 0.0303 µM).

And the IC50 ([2]; 8 h)?
Its IC50 is 0.003 µg/mL (≈ 0.00569 µM).

And the IC50 ([2]; 12 h)?
The IC50 was 0.0052 µg/mL (≈ 0.00986 µM).
